In US10160771B2, “Hepatitis C virus inhibitors and uses thereof in preparation of drugs” (priority 2014, dated 2018):

Experiments:
[1] = Cell Titer-fluor cell activity assay in HCV-1b replicon cells (CC50); type: cell-based
In short: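 CC50 derived by nonlinear fitting of inhibition % from Cell Titer-fluor signal (405/515 nm, 30 min). Cells: genotype 1b Con1 replicon carrying E1202G, T1280I, K1846T, seeded 8000/well with compound for 3 days, 37 °C, 0.5% DMSO; 6 points, 5-fold dilution, top 100, 10 or 1 nM, duplicates.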

[2] = test system: HCV genotype 1a (HCV-1a) replicon cells; test: HCV genotype 1a replicon luciferase assay (EC50); type: cell-based, hepatitis C virus genotype 1a (H77 clone); conditions: Hepatitis C virus, 72 h, 3 days, luciferase (Bright-Glo)
In short: (§1)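 EC50 by nonlinear fitting of % inhibition from Bright-Glo luciferase signal after 3-day, 37° C. compound exposure (5-fold, 6 points from 100, 10 or 1 nM; 0.5% DMSO; duplicates). Cells: 1a replicon from H77 (K1691R/K2040R/S2204I) or 1b from Con1 (E1202G/T1280I/K1846T), 8000 per well.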

[3] = test system: HCV genotype 1b (HCV-1b) replicon cells; test: HCV genotype 1b replicon luciferase assay (EC50); type: cell-based, hepatitis C virus genotype 1b (Con1 clone); conditions: Hepatitis C virus, 72 h, 3 days, luciferase (Bright-Glo)
In short: as §1

Compound: COC(=O)N[C@H](C(=O)N1CCC[C@H]1c1ccc(-c2ccc(-c3ccc(-c4cnc([C@@H]5CC6(CN5C(=O)[C@H](NC(=O)OC)C(C)C)OCC(C)(C)CO6)[nH]4)cc3)cc2)[nH]1)C(C)C [AG_076]
- CC50 at 3 days [1]: > 5 nM
- EC50 [2]: 10 to 100 nM
- EC50 [3]: 0.001 to 0.1 nM

Compound: COC(=O)N[C@H](C(=O)N1CCC[C@H]1c1[nH]c(-c2ccc(-c3ccc(-c4cnc([C@@H]5CCCN5C(=O)[C@@H](NC(=O)OC)[C@@H](C)OC)[nH]4)cc3)cc2)c2c1COC2)C(C)C [AG_077]
- CC50 at 3 days [1]: > 5 nM
- EC50 [2]: 0.001 to 0.1 nM
- EC50 [3]: 0.001 to 0.1 nM

Compound: COC(=O)N[C@H](C(=O)N1CCC[C@H]1c1ncc(-c2ccc(-c3ccc(-c4[nH]c([C@@H]5CCCN5C(=O)[C@@H](NC(=O)OC)[C@@H](C)OC)c5c4CCCC5)cc3)cc2)[nH]1)C(C)C [AG_078_A]
- CC50 at 3 days [1]: > 5 nM
- EC50 [2]: 10 to 100 nM
- EC50 [3]: 0.001 to 0.1 nM

Compound: COC(=O)N[C@H](C(=O)N1CCC[C@H]1c1ncc(-c2ccc(-c3ccc(-c4[nH]c([C@H]5CCCN5C(=O)[C@@H](NC(=O)OC)[C@@H](C)OC)c5c4CCCC5)cc3)cc2)[nH]1)C(C)C [AG_078_B]
- CC50 at 3 days [1]: > 5 nM
- EC50 [2]: 10 to 100 nM
- EC50 [3]: 0.101 to 1 nM

Compound: COC(=O)N[C@H](C(=O)N1CCC[C@H]1c1ncc(-c2ccc(-c3ccc(-c4[nH]c([C@@H]5CCCN5C(=O)[C@@H](NC(=O)OC)[C@@H](C)OC)c5c4COC5)cc3)cc2)[nH]1)C(C)C [AG_079_A]
- CC50 at 3 days [1]: > 5 nM
- EC50 [2]: 0.001 to 0.1 nM
- EC50 [3]: 0.001 to 0.1 nM

Compound: COC(=O)N[C@H](C(=O)N1CCC[C@H]1c1ncc(-c2ccc(-c3ccc(-c4[nH]c([C@H]5CCCN5C(=O)[C@@H](NC(=O)OC)C(C)OC)c5c4COC5)cc3)cc2)[nH]1)C(C)C (stereo partly drawn) [AG_079_B]
- CC50 at 3 days [1]: > 5 nM
- EC50 [2]: 1 to 10 nM
- EC50 [3]: 0.101 to 1 nM

Compound: COC(=O)N[C@H](C(=O)N1CCC[C@@H]1c1[nH]c(-c2ccc(-c3ccc(-c4cnc([C@@H]5CCCN5C(=O)[C@@H](NC(=O)OC)[C@@H](C)OC)[nH]4)cc3)cc2)c2c1COC2)C(C)OC (stereo partly drawn) [AG_080_B]
- CC50 at 3 days [1]: > 5 nM
- EC50 [2]: 1 to 10 nM
- EC50 [3]: 0.101 to 1 nM

Compound: COC(=O)N[C@H](C(=O)N1CCC[C@H]1c1ncc(-c2ccc(-c3ccc(-c4ccc([C@@H]5CCCN5C(=O)N(NC(=O)OC)C(C)C)[nH]4)cc3)cc2)[nH]1)C(C)C [AG_081_A]
- CC50 at 3 days [1]: > 5 nM
- EC50 [2]: 10 to 100 nM
- EC50 [3]: 0.101 to 1 nM

Compound: COC(=O)N[C@H](C(=O)N1CCC[C@H]1c1ncc(-c2ccc(-c3ccc(-c4ccc([C@H]5CCCN5C(=O)N(NC(=O)OC)C(C)C)[nH]4)cc3)cc2)[nH]1)C(C)C [AG_081_B]
- CC50 at 3 days [1]: > 1 nM
- EC50 [2]: 10 to 100 nM
- EC50 [3]: 0.001 to 0.1 nM

Compound: COC(=O)N[C@H](C(=O)N1CCC[C@H]1c1ncc(-c2ccc(-c3ccc(-c4[nH]c(C5CCCN5C(=O)[C@@H]5COC(=O)N5)c5c4CCC5)cc3)cc2)[nH]1)C(C)C (stereo partly drawn) [AG_084_A]
- CC50 at 3 days [1]: > 1 nM
- EC50 [2]: 1 to 10 nM
- EC50 [3]: 0.101 to 1 nM

Compound: COC(=O)NC(C(=O)N1CCCC1c1ccc(-c2ccc3c(c2)C(C)(C)c2cc(-c4cnc([C@@H]5CCCN5C(=O)[C@@H](NC(=O)OC)C(C)C)[nH]4)ccc2-3)[nH]1)[C@@H](C)OC (stereo partly drawn) [AG_085]
- CC50 at 3 days [1]: > 1 nM
- EC50 [2]: 10 to 100 nM
- EC50 [3]: 0.001 to 0.1 nM

Compound: COC(=O)N[C@H](C(=O)N1CCC[C@H]1c1[nH]c(-c2ccc(-c3ccc(-c4cnc([C@@H]5CCCN5C(=O)[C@@H](NC(=O)OC)C5CC5)[nH]4)cc3)cc2)c2c1CCC2)C(C)C [AG_086]
- CC50 at 3 days [1]: > 1 nM
- EC50 [2]: 10 to 100 nM
- EC50 [3]: 0.001 to 0.1 nM

Compound: COC(=O)N[C@H](C(=O)N1CCCC1c1cc(Cl)c(-c2ccc(-c3ccc(-c4cnc([C@@H]5CCCN5C(=O)[C@@H](NC(=O)OC)C(C)C)[nH]4)cc3)cc2)[nH]1)C(C)C (stereo partly drawn) [AG_087]
- CC50 at 3 days [1]: > 1 nM
- EC50 [2]: 0.101 to 1 nM
- EC50 [3]: 0.001 to 0.1 nM

Compound: COC(=O)N[C@H](C(=O)N1CCC[C@H]1c1[nH]c(-c2ccc(-c3ccc(-c4[nH]c([C@@H]5CCCN5C(=O)[C@@H](NC(=O)OC)[C@@H](C)OC)c5c4COC5)cc3)cc2)c2c1COC2)[C@@H](C)OC [AG_088_A]
- CC50 at 3 days [1]: > 1 nM
- EC50 [2]: 0.101 to 1 nM
- EC50 [3]: 0.001 to 0.1 nM

Compound: COC(=O)N[C@H](C(=O)N1CCC[C@H]1c1[nH]c(-c2ccc(-c3ccc(-c4cnc([C@@H]5CCCN5C(=O)[C@@H](NC(=O)OC)[C@@H](C)O)[nH]4)cc3)cc2)c2c1CCC2)C(C)C [AG_090]
- CC50 at 3 days [1]: > 1 nM
- EC50 [2]: 1 to 10 nM
- EC50 [3]: 0.001 to 0.1 nM

Compound: COC[C@H](NC(=O)OC)C(=O)N1CCC[C@H]1c1ncc(-c2ccc(-c3ccc(-c4[nH]c([C@@H]5CCCN5C(=O)[C@@H](NC(=O)OC)C(C)C)c5c4CCC5)cc3)cc2)[nH]1 [AG_091]
- CC50 at 3 days [1]: > 1 nM
- EC50 [2]: 1 to 10 nM
- EC50 [3]: 0.001 to 0.1 nM

Compound: COC(=O)NC(C(=O)N1CCC[C@H]1c1nc2ccc(-c3ccc(-c4[nH]c([C@@H]5CCCN5C(=O)[C@@H](NC(=O)OC)C(C)OC)c5c4CCC5)cc3)cc2[nH]1)[C@@H](C)OC (stereo partly drawn) [AG_092]
- CC50 at 3 days [1]: > 1 nM
- EC50 [2]: 10 to 100 nM
- EC50 [3]: 0.001 to 0.1 nM

Compound: COC(=O)N[C@H](C(=O)N1CCC[C@H]1c1[nH]c(-c2ccc(-c3ccc(-c4cnc([C@@H]5CCCN5C(=O)[C@@H](NC(=O)OC)C(C)(C)C)[nH]4)cc3)cc2)c2c1CCC2)C(C)C [AG_093]
- CC50 at 3 days [1]: > 1 nM
- EC50 [2]: 10 to 100 nM
- EC50 [3]: 0.001 to 0.1 nM

Compound: COC(=O)N[C@H](C(=O)N1CCC[C@H]1c1ncc(-c2ccc(-c3ccc(-c4cc(Cl)c([C@@H]5CCCN5C(=O)[C@@H](NC(=O)OC)[C@@H](C)OC)[nH]4)cc3)cc2)[nH]1)[C@@H](C)OC [AG_094]
- CC50 at 3 days [1]: > 1 nM
- EC50 [2]: 0.101 to 1 nM
- EC50 [3]: 0.001 to 0.1 nM

Compound: COC[C@H](NC(=O)OC)C(=O)N1CCC[C@H]1c1ncc(-c2ccc(-c3ccc(-c4ccc([C@@H]5CCCN5C(=O)[C@@H](NC(=O)OC)C(C)C)[nH]4)cc3)cc2)[nH]1 [AG_100]
- CC50 at 3 days [1]: > 1 nM
- EC50 [2]: 0.101 to 1 nM
- EC50 [3]: 0.001 to 0.1 nM

Compound: COC(=O)N[C@H](C(=O)N1CCC[C@H]1c1ccc(-c2ccc(-c3ccc(-c4cnc([C@@H]5CCCN5C(=O)[C@@H](NC(=O)OC)C5CCCCC5)[nH]4)cc3)cc2)[nH]1)C(C)C [AG_101]
- CC50 at 3 days [1]: > 1 nM
- EC50 [2]: 1 to 10 nM
- EC50 [3]: 0.001 to 0.1 nM

Compound: COC(=O)N[C@H](C(=O)N1CCC[C@H]1c1ccc(-c2ccc(-c3ccc(-c4cnc([C@@H](NC(=O)[C@@H](NC(=O)OC)[C@@H](C)OC)C(C)C)[nH]4)cc3)cc2)[nH]1)C(C)C [AG_102]
- CC50 at 3 days [1]: > 1 nM
- EC50 [2]: 1 to 10 nM
- EC50 [3]: 0.001 to 0.1 nM

Compound: COC(=O)N[C@H](C(=O)N1CCCC1c1ncc(-c2ccc3c(c2)oc2cc(-c4ccc([C@@H]5CCCN5C(=O)[C@@H](NC(=O)OC)[C@@H](C)OC)[nH]4)ccc23)[nH]1)[C@@H](C)OC (stereo partly drawn) [AG_103]
- CC50 at 3 days [1]: > 1 nM
- EC50 [2]: 1 to 10 nM
- EC50 [3]: 0.001 to 0.1 nM

Compound: COC(=O)N[C@H](C(=O)N1CCC[C@H]1c1[nH]c(-c2ccc(-c3ccc(-c4cnc([C@@H]5CCCN5C(=O)[C@@H](NC(=O)OC)[C@@H](C)O)[nH]4)cc3)cc2)c2c1COC2)C(C)C [AG_104]
- CC50 at 3 days [1]: > 1 nM
- EC50 [2]: 0.001 to 0.1 nM
- EC50 [3]: 0.001 to 0.1 nM

Compound: COC(=O)N[C@H](C(=O)N1CCC[C@H]1c1ncc(-c2ccc(-c3ccc(-c4[nH]c([C@@H]5CCCN5C(=O)[C@@H](NC(=O)OC)[C@@H](C)OC)c5c4COC5)cc3)cc2)[nH]1)[C@@H](C)O [AG_105]
- CC50 at 3 days [1]: > 1 nM
- EC50 [2]: 0.101 to 1 nM
- EC50 [3]: 0.001 to 0.1 nM

Compound: COC(=O)N[C@H](C(=O)NC1(c2ncc(-c3ccc(-c4ccc(-c5ccc([C@@H]6CCCN6C(=O)[C@@H](NC(=O)OC)[C@@H](C)OC)[nH]5)cc4)cc3)[nH]2)CC1)[C@@H](C)OC [AG_106]
- CC50 at 3 days [1]: > 1 nM
- EC50 [2]: 10 to 100 nM
- EC50 [3]: 0.001 to 0.1 nM
